Assay results from patent publication US10583137B2, “Triazole DAGLα inhibitors” (THE SCRIPPS RESEARCH INSTITUTE, priority 2015, dated 2020).

Columns and labels:
DAGLα (hDAGLα-FLAG) = DAGLα (hDAGLα-FLAG) (Homo sapiens (Human), UniProt Q9Y4D2); experiment: competitive ABPP, membrane proteome of transfected HEK293T cells; format: biochemical; conditions: for inhibition at 0.0032 µM: 3.2 nM, read-out: DAGLα % inh. 3.2 nM; for IC50: read-out: DAGLα IC50; for inhibition at 0.4 µM: read-out: DAGLα % inh. 0.4 μM
DAGLα (hDAGLα-FLAG), sequence (Q9Y4D2 whole entry): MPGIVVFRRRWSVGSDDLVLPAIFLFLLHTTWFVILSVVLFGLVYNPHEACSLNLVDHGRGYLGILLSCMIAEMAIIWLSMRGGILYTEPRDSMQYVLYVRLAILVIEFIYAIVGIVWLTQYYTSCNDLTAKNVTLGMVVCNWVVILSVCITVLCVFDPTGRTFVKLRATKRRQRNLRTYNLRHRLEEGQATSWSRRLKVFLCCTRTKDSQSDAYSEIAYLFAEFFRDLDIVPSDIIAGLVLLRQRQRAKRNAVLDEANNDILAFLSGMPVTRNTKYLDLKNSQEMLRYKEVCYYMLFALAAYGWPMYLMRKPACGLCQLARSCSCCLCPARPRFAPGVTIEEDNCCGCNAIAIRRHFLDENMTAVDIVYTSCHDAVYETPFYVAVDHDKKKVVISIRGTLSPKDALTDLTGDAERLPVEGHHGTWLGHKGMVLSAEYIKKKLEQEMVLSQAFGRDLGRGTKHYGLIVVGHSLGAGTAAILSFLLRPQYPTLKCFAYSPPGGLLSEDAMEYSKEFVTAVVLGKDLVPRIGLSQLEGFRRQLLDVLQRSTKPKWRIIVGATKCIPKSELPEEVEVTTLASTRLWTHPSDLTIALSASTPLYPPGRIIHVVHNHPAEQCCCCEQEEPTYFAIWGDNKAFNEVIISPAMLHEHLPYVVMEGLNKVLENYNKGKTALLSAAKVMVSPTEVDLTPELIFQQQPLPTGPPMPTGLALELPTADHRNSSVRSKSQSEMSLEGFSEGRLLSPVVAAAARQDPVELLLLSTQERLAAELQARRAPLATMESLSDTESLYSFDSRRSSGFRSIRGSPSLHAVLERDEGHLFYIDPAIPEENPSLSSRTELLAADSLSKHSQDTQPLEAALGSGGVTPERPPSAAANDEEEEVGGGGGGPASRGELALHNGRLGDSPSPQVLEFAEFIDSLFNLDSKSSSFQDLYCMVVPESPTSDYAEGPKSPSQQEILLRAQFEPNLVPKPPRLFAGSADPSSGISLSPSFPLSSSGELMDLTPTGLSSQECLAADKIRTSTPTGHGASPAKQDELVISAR
Procedure: (§1) Compounds 19 and 20 were tested for in vitro inhibition of DAGLα and DAGLβ as measured by competitive activity-based protein profiling (ABPP) of […] using a HT-01 probe (targets DAGLα and DAGLβ) and a FP-Rh probe (targets serine hydrolases).
(§2) Briefly, membrane proteome (1 mg/ml, 20 μL) was prepared from HEK293T cells (transiently transfected with hDAGLα-FLAG or hDAGLα-S472A-FLAG, hDAGLβ-FLAG or hDAGLβ-S443A-FLAG) as described in Example 16. The proteome was incubated at room temperature with vehicle (DMSO) or compound in 0.5 μL DMSO for 30 min. The membrane proteome sample was subsequently treated for 30 min with HT-01 probe (1 μM) or FP-Rh probe (1 μM). The reactions were quenched with 10 μL 3× Laemmli sample buffer (final concentrations: 60 mM Tris-Cl pH 6.8, 2% (w/v) SDS, 10% (v/v) glycerol, 5% (v/v) (3-mercaptoethanol, 0.01% (v/v) bromophenol blue). The samples were directly loaded and resolved on SDS page gel (10% acrylamide). The gels were scanned using a ChemiDoc MP system (Cy3 settings, 605/50 filter).
(§3) The resolved proteins were transferred from the gels to a polyvinyldifluoride membrane for Western Blotting using a Trans-Blot® Turbo (BioRad). FLAG-tagged enzymes were stained using rabbit anti-FLAG as primary antibody, and goat-anti-rabbit HRP as secondary antibody. The blot was developed in the dark using a 10 mL luminal solution, 100 μL ECL enhancer and 3 μL H2O2. Chemiluminescence was visualized using a ChemiDoc XRS (BioRad).
(§4) The percentage of DAGL activity remaining in the assayed samples was determined by measuring the integrated optical intensity of the fluorescent protein bands of the Western Blot using image lab 4.1. The relative intensity was compared to the vehicle (DMSO) treated proteins, which were set to 100%. IC50 values were determined by plotting a log(inhibitor) vs. normalized response (Variable slope) dose-response curve generated using Prism software (GraphPad).

DAGLβ (hDAGLβ-FLAG) = DAGLβ (hDAGLβ-FLAG) (Homo sapiens (Human), UniProt Q8NCG7); experiment: as above; format: biochemical; conditions: for inhibition at 0.0032 µM: read-out: DAGLβ % inh. 3.2 nM; for IC50: read-out: DAGLβ IC50; for inhibition at 0.4 µM: read-out: DAGLβ % inh. 0.4 μM; for inhibition at 0.8 µM: 0.8 μM (stated under the cell), read-out: DAGLβ % inh. 0.8 μM
DAGLβ (hDAGLβ-FLAG), sequence (Q8NCG7 whole entry): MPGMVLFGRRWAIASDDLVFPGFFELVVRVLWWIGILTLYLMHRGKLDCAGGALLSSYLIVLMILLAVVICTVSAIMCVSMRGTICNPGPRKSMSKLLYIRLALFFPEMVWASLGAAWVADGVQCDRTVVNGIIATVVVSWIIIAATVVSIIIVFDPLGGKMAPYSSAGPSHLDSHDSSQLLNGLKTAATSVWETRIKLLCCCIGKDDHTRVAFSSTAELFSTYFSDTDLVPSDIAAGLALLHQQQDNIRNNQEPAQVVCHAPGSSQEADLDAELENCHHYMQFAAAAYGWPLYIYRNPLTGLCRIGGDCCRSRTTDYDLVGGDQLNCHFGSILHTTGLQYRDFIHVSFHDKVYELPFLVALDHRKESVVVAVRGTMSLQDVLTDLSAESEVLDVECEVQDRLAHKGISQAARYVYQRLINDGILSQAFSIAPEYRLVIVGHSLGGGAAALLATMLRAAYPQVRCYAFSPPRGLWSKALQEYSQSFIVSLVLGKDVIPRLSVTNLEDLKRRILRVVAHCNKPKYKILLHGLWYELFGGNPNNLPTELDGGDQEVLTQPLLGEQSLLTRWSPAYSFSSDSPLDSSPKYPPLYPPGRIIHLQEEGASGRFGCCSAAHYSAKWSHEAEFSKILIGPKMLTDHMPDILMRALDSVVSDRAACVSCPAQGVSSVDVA
Procedure: as §1, §2, §3, §4

Compound | IC50 (DAGLα (hDAGLα-FLAG)) [nM] | IC50 (DAGLβ (hDAGLβ-FLAG)) [nM] | further results
O=C(N1CCC=C[C@H]1COCc1ccccc1)n1ncc(-c2ccc(OC(F)(F)F)cc2)n1 [Compound 109, (S)-(6-((benzyloxy)methyl)-3,6-dihydropyridin-1(2H)-yl)(4-(4-(trifluoromethoxy)phenyl)-2H-1,2,3-triazol-2-yl)methanone] | – | – | inhibition at 0.0032 µM (DAGLα (hDAGLα-FLAG)): 0 to 25%; inhibition at 0.0032 µM (DAGLβ (hDAGLβ-FLAG)): 0 to 25%
O=C(N1CCCCC1Cc1ccncc1)n1cc(-c2ccc(-c3ccccc3)cc2)nn1 (stereo not shown) [Compound 66, (4-([1,1′-biphenyl]-4-yl)-1H-1,2,3-triazol-1-yl)(2-(pyridin-4-ylmethyl)piperidin-1-yl)methanone] | ≤ 400 | ≤ 400 | –
O=C(N1C[C@H](O)C=C[C@@H]1COCc1ccccc1)n1ncc(-c2ccc(OC(F)(F)F)cc2)n1 [Compound 51, ((3R,6R)-6-((Benzyloxy)methyl)-3-hydroxy-3,6-dihydropyridin-1(2H)-yl)(4-(4-(trifluoromethoxy)phenyl)-2H-1,2,3-triazol-2-yl)methanone] | – | – | inhibition at 0.0032 µM (DAGLα (hDAGLα-FLAG)): 0 to 25%; inhibition at 0.0032 µM (DAGLβ (hDAGLβ-FLAG)): 0 to 25%
CC(C)OC(=O)N1CCN(C(=O)n2ncc(-c3ccc(OC(F)(F)F)cc3)n2)C(Cc2ccccc2)C1 (stereo not shown) [Compound 97, isopropyl 3-benzyl-4-(4-(4-(trifluoromethoxy)phenyl)-2H-1,2,3-triazole-2-carbonyl)piperazine-1-carboxylate] | – | – | inhibition at 0.4 µM (DAGLα (hDAGLα-FLAG)): 25 to 50%; inhibition at 0.4 µM (DAGLβ (hDAGLβ-FLAG)): 0 to 25%
O=C(N1C[C@@H](OCC2CC2)CC[C@@H]1Cc1ccccc1)n1ncc(-c2ccc(OC(F)(F)F)cc2)n1 [Compound 45, ((2R,5S)-2-benzyl-5-(cyclopropylmethoxy)piperidin-1-yl)(4-(4-(trifluoromethoxy)phenyl)-2H-1,2,3-triazol-2-yl)methanone] | – | – | inhibition at 0.0032 µM (DAGLα (hDAGLα-FLAG)): 25 to 50%; inhibition at 0.0032 µM (DAGLβ (hDAGLβ-FLAG)): 0 to 25%
COc1cc(C(=O)N(C)C)cc(OC)c1-c1ccc(-c2cn(C(=O)N3CCCCC3Cc3ccccc3)nn2)cc1 (stereo not shown) [Compound 80, 4′-(1-(2-benzylpiperidine-1-carbonyl)-1H-1,2,3-triazol-4-yl)-2,6-dimethoxy-N,N-dimethyl-[1,1′-biphenyl]-4-carboxamide] | 400 to 2000 | > 10000 | –
COC(=O)N1CCN(C(=O)n2cc(-c3ccc(OC(F)(F)F)cc3)nn2)C(Cc2ccccc2)C1 (stereo not shown) [Compound 95, methyl 3-benzyl-4-(4-(4-(trifluoromethoxy)phenyl)-1H-1,2,3-triazole-1-carbonyl)piperazine-1-carboxylate] | – | – | inhibition at 0.4 µM (DAGLα (hDAGLα-FLAG)): ≥ 75%; inhibition at 0.4 µM (DAGLβ (hDAGLβ-FLAG)): 25 to 50%
CC(C)C(=O)N1CCN(C(=O)n2cc(-c3ccc(OC(F)(F)F)cc3)nn2)C(Cc2ccccc2)C1 (stereo not shown) [Compound 26, 1-(3-benzyl-4-(4-(4-(trifluoromethoxy)phenyl)-1H-1,2,3-triazole-1-carbonyl)piperazin-1-yl)-2-methylpropan-1-one] | – | – | DAGLα % inh. 0.8 μM (DAGLα (hDAGLα-FLAG); 0.8 μM (stated under the cell)): * (% inhibition greater than or equal to 0% and less than 25%); inhibition at 0.8 µM (DAGLβ (hDAGLβ-FLAG)): 0 to 25%
C#CCCCC(=O)N1CCN(C(=O)n2cc(-c3ccc(OC(F)(F)F)cc3)nn2)C(Cc2ccccc2)C1 (stereo not shown) [Compound 34, 1-(3-benzyl-4-(4-(4-(trifluoromethoxy)phenyl)-1H-1,2,3-triazole-1-carbonyl)piperazin-1-yl)hex-5-yn-1-one] | – | – | inhibition at 0.8 µM (DAGLα (hDAGLα-FLAG); 0.8 μM (stated under the cell), read-out: DAGLα % inh. 0.8 μM): 25 to 50%; inhibition at 0.8 µM (DAGLβ (hDAGLβ-FLAG)): 0 to 25%
COc1cncc(OC)c1-c1ccc(-c2cnn(C(=O)N3CCCCC3Cc3ccccc3)n2)cc1 (stereo not shown) [Compound 70, (2-benzylpiperidin-1-yl)(4-(4-(3,5-dimethoxypyridin-4-yl)phenyl)-2H-1,2,3-triazol-2-yl)methanone] | 2000 to 10000 | > 10000 | –
O=C(N1CCC=C[C@@H]1COCc1ccccc1)n1ncc(-c2ccc(OC(F)(F)F)cc2)n1 [Compound 107, (R)-(6-((benzyloxy)methyl)-3,6-dihydropyridin-1(2H)-yl)(4-(4-(trifluoromethoxy)phenyl)-2H-1,2,3-triazol-2-yl)methanone] | – | – | inhibition at 0.0032 µM (DAGLα (hDAGLα-FLAG)): 0 to 25%; inhibition at 0.0032 µM (DAGLβ (hDAGLβ-FLAG)): 0 to 25%
COc1cnccc1-c1ccc(-c2cn(C(=O)N3CCCCC3Cc3ccccc3)nn2)cc1 (stereo not shown) [Compound 65, (2-benzylpiperidin-1-yl)(4-(4-(3-methoxypyridin-4-yl)phenyl)-1H-1,2,3-triazol-1-yl)methanone] | 400 to 2000 | 2000 to 10000 | –
O=C(N1CCCCC1Cc1ccccc1)n1cc(-c2ccc(-c3cccnc3)cc2)nn1 (stereo not shown) [Compound 60, (2-benzylpiperidin-1-yl)(4-(4-(pyridin-3-yl)phenyl)-1H-1,2,3-triazol-1-yl)methanone] | ≤ 400 | 2000 to 10000 | –
CO[C@@H]1CC[C@H](Cc2ccccc2)N(C(=O)n2ncc(-c3ccc(OC(F)(F)F)cc3)n2)C1 [Compound 117, ((2R,5R)-2-benzyl-5-methoxypiperidin-1-yl)(4-(4-(trifluoromethoxy)phenyl)-2H-1,2,3-triazol-1-yl)methanone] | – | – | inhibition at 0.0032 µM (DAGLα (hDAGLα-FLAG)): 0 to 25%; inhibition at 0.0032 µM (DAGLβ (hDAGLβ-FLAG)): 0 to 25%
O=C(N1C[C@H](O)C=C[C@@H]1COCc1ccccc1)n1cc(-c2ccc(OC(F)(F)F)cc2)nn1 [Compound 50, ((3R,6R)-6-((Benzyloxy)methyl)-3-hydroxy-3,6-dihydropyridin-1(2H)-yl)(4-(4-(trifluoromethoxy)phenyl)-1H-1,2,3-triazol-1-yl)methanone] | – | – | inhibition at 0.0032 µM (DAGLα (hDAGLα-FLAG)): 0 to 25%; inhibition at 0.0032 µM (DAGLβ (hDAGLβ-FLAG)): 0 to 25%
COc1cc(C)cc(OC)c1-c1ccc(-c2cn(C(=O)N3CCCCC3Cc3ccncc3)nn2)cc1 (stereo not shown) [Compound 68, (4-(2′,6′-dimethoxy-4′-methyl-[1,1′-biphenyl]-4-yl)-1H-1,2,3-triazol-1-yl)(2-(pyridin-4-ylmethyl)piperidin-1-yl)methanone] | ≤ 400 | 2000 to 10000 | –
CN(C)C(=O)c1ccccc1-c1ccc(-c2cn(C(=O)N3CCCCC3Cc3ccccc3)nn2)cc1 (stereo not shown) [Compound 77, 4′-(1-(2-benzylpiperidine-1-carbonyl)-1H-1,2,3-triazol-4-yl)-N,N-dimethyl-[1,1′-biphenyl]-2-carboxamide] | ≤ 400 | 400 to 2000 | –

Now from value to compound, other results behind:

IC50 (DAGLα (hDAGLα-FLAG)) [nM] | IC50 (DAGLβ (hDAGLβ-FLAG)) [nM] | Compound | further results
≤ 400 | 2000 to 10000 | CS(=O)(=O)OCc1ccc(-c2cn(C(=O)N3CCCCC3Cc3ccccc3)nn2)cc1 (stereo not shown) [Compound 91, 4-(1-(2-benzylpiperidine-1-carbonyl)-1H-1,2,3-triazol-4-yl)benzyl methanesulfonate] | –
≤ 400 | ≤ 400 | N#Cc1ccc(-c2cn(C(=O)N3CCCCC3Cc3ccccc3)nn2)cc1 (stereo not shown) [Compound 88, 4-(1-(2-benzylpiperidine-1-carbonyl)-1H-1,2,3-triazol-4-yl)benzonitrile] | –
2000 to 10000 | 400 to 2000 | O=C(N(CCc1ccccc1)C1CCC1)n1ncc(-c2ccc(OC(F)(F)F)cc2)n1 [Compound 128, N-cyclobutyl-N-phenethyl-4-(4-(trifluoromethoxy)phenyl)-2H-1,2,3-triazole-2-carboxamide] | –
≤ 400 | ≤ 400 | CC(C)(C)CN(CCc1ccccc1)C(=O)n1cc(-c2ccc(OC(F)(F)F)cc2)nn1 [Compound 123, N-neopentyl-N-phenethyl-4-(4-(trifluoromethoxy)phenyl)-1H-1,2,3-triazole-1-carboxamide] | –
≤ 400 | ≤ 400 | CC(C)(C)CN(CCc1cccnc1)C(=O)n1cc(-c2ccc(OC(F)(F)F)cc2)nn1 [Compound 134, N-neopentyl-N-(2-(pyridin-3-yl)ethyl)-4-(4-(trifluoromethoxy)phenyl)-1H-1,2,3-triazole-1-carboxamide] | –
400 to 2000 | > 10000 | COc1cc(C(=O)N2CCCC2)cc(OC)c1-c1ccc(-c2cn(C(=O)N3CCCCC3Cc3ccccc3)nn2)cc1 (stereo not shown) [Compound 81, (2-benzylpiperidin-1-yl)(4-(2′,6′-dimethoxy-4′-(pyrrolidine-1-carbonyl)-[1,1′-biphenyl]-4-yl)-1H-1,2,3-triazol-1-yl)methanone] | –
≤ 400 | ≤ 400 | O=C(N1CCCCC1Cc1ccccc1)n1cc(-c2ccc(Br)nc2)nn1 (stereo not shown) [Compound 90, (2-benzylpiperidin-1-yl)(4-(6-bromopyridin-3-yl)-1H-1,2,3-triazol-1-yl)methanone] | –
2000 to 10000 | – | CCC(CC)CN(CCc1ccccc1)C(=O)n1ncc(-c2ccc(OC(F)(F)F)cc2)n1 [Compound 126, N-(2-ethylbutyl)-N-phenethyl-4-(4-(trifluoromethoxy)phenyl)-2H-1,2,3-triazole-2-carboxamide] | –
